Source: paper PMC7962978, “PSMA-D4 Radioligand for Targeted Therapy of Prostate Cancer: Synthesis, Characteristics and Preliminary Assessment of Biological Properties” (International Journal of Molecular Sciences, 2021)
Like-named read-outs stand apart in the source and are kept apart here. One block for each molecule: values may come before it.

How the values were obtained:
PSMA antigen [1] = target: T1, PSMA antigen (Homo sapiens, UniProt Q04609); test: Competitive binding assay on LNCaP cell membranes with [^177Lu]Lu-PSMA-617 as radioligand; conditions: radioligand [^177Lu]Lu-PSMA-617, 2 h incubation
T1 construct: PSMA antigen expressed on LNCaP cell membranes; endogenous in cells; host or cells: LNCaP cell membranes (PC3 membranes as PSMA-negative control)
Procedure: The half-maximal inhibitory concentration (IC50) of PSMA-D4 was determined in a competitive binding assay carried out on 96-well MuliScreen filter plates using LNCaP cell membranes (50 mcL) incubated with [^177Lu]Lu-PSMA-617 as a radioligand and ten different concentrations (2.4–9708 nM) of PSMA-D4. After 2 h incubation, plates were treated in the same way as in the saturation binding assay. The amount of bound radioactivity was measured in γ-counter. IC50 value was evaluated using GraphPad Prism software (Darmstadt, Germany).

LNCaP cells = test: Cell uptake (total binding) and internalization in LNCaP cells; assay type: cell-based, human; conditions: 37 °C, 2 h
Procedure: To determine cell uptake and internalization of [^177Lu]Lu-PSMA-D4 and [^90Y]Y-PSMA-D4, LNCaP cells (5 × 10^5 cells well^−1) were incubated in un-supplemented RPMI 1640 medium with one concentration of tested radioligands on 12-well plates in 37 °C per 2 h. After the appropriate time, the medium was removed, and cells were washed twice using phosphate buffer saline (PBS, IITD PAN, Wroclaw, Poland). The cells were treated twice with 1 mL of 50 mM glycine in 0.1 M NaCl at a pH of 2.8 and incubated for 5 min at room temperature to collect extracellularly bound compound. The internalization was determined by measuring the radioactivity of 1mL of 1 M NaOH used for cell lysis. Total binding was calculated as a sum of the membrane and internalized fractions measured using Wallac Wizard 1470 γ counter. As a control, [^177Lu]Lu-PSMA-617 and [^68Ga]Ga-PSMA-11 were used.

mCRPC patients = tested on: mCRPC patients; set-up: method as in PMID 32172798, PMID 31418764, PMID 32290196; conditions: four clinical studies, approximately 150 mCRPC patients; cited from earlier work
PSMA = tested on: PSMA; set-up: method as in earlier work; conditions: ref 34 (Tönnesmann R et al.); cited from earlier work
[2] = tested on: PC-3 PIP (PSMA positive) tumor-bearing mice; set-up: method as in PMID 28102507; conditions: PC-3 PIP tumor, 2 h p.i.v., 1 nmol, BALB/c Nude mice; cited from earlier work
[3] = Lipophilicity determination (logD), shake-flask method; assay type: physicochemical; conditions: n-octanol / PBS pH 7.4, shake-flask
Procedure: The partition coefficient logD of the radioligands was determined by the shake-flask method. The solution of 10 to 50 MBq of radiolabeled PSMA ligands (D-4, 617, 11, I&T) in 1.0 mL of phosphate-buffered saline (PBS, pH 7.4) was added to 1.0 mL of presaturated n-octanol solution (n = 3). Vials were shaken vigorously for 10 min. To achieve quantitative phase separation, the vials were centrifuged at 1600 rpm for 5 min. The radioactivity concentration in a defined volume of both the aqueous and the organic phase in six replicates each was measured in a γ-counter (Wizard 1470, Wallac, Turku, Finland). The partition coefficient was calculated as the logarithm of the ratio between counts per minute (cpm) measured in the n-octanol phase to the PBS phase counts.

PSMA antigen [4] = target: T1, PSMA antigen; test: Saturation radioligand binding assay on LNCaP (PSMA positive) and PC3 (PSMA negative) cell membranes; conditions: for Kd: LNCaP cell membranes, 2 h, 37 °C; for Specific Binding: total binding on LNCaP minus non-specific binding on PC3 membranes
Procedure: The equilibrium constant (KD) was determined by a saturation binding experiment performed in PSMA positive LNCaP and PSMA negative PC3 cell membranes isolated according to the procedure developed by Fichna et al.. The 50 mcL of LNCaP and PC3 cell membranes were seeded on special MultiScreen™ 96 well filter plates (Merck, Warsaw, Poland) and incubated for 2 h with increasing concentration of [^177Lu]Lu-PSMA-D4, [^90Y]Y-PSMA-D4, and […] (0.016–194 nM) at 37 °C. After incubation, the unbound radiocomplexes were filtered under vacuum, and the membranes were washed twice using PBS. The filters containing membranes with the attached radiotracer were extruded into tubes using MultiScreen Multile Punch (Merck). The number of associated inhibitors was determined by measuring the radioactivity of squeezed filters using Wallac Wizard 1470 γ counter. The KD and Bmax were calculated by nonlinear regression using the GraphPad Prism statistic program.

LNCaP tumor-bearing mice = conditions: 1 h p.i.v., cited from earlier work
[5] = 0.2 nmol, CD-1 nu/nu mice, ref 14
[6] = 0.2 nmol, CD-1 nu/nu mice, ref 37

T1 sequence (Q04609 whole entry): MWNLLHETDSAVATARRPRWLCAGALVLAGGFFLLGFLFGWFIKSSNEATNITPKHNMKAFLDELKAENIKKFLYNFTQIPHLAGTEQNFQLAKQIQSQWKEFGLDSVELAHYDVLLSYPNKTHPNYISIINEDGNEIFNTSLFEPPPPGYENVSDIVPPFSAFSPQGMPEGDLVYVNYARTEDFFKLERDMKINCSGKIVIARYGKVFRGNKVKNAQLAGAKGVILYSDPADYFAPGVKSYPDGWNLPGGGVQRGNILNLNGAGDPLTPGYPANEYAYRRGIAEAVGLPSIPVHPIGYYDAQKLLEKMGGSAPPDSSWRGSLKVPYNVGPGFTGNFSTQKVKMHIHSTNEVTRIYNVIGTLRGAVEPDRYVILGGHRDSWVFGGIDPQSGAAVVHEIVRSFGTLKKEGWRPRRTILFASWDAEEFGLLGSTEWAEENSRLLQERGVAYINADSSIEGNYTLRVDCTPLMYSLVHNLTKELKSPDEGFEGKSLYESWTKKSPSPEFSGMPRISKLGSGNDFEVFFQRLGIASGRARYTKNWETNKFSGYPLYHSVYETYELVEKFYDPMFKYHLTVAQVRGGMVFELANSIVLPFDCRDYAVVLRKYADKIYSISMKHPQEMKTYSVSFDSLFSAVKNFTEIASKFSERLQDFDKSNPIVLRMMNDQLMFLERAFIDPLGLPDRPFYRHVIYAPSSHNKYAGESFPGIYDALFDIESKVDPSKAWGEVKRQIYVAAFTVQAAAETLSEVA

IC50 (PSMA antigen [1]): 84.5 ± 26.5 nM
Compound: O=C(O)CCc1ccc(O)c(CN(CCN(CC(=O)O)Cc2cc(CCC(=O)NCCCCCC(=O)NCCCC[C@H](NC(=O)N[C@@H](CCC(=O)O)C(=O)O)C(=O)O)ccc2O)CC(=O)O)c1 [PSMA-11, reference compound]
Internalization (LNCaP cells): 2.6%

Compound: O=C([O-])CN1CCN(CC(=O)[O-])CCN(CC(=O)NCC2CCC(C(=O)NC(Cc3ccc4ccccc4c3)C(=O)NCCCCC(NC(=O)NC(CCC(=O)O)C(=O)O)C(=O)O)CC2)CCN(CC(=O)[O-])CC1.[225Ac+3] (centres unmarked) [PSMA-617 labeled with actinium-225]
hematologic toxicity (mCRPC patients): extremely low hematologic toxicity
patients with prostate-specific antigen (PSA) response in terms of PSA decline (mCRPC patients): ~90%

Compound: O=C(O)CC[C@H](NC(=O)N[C@@H](CCCCNC(=O)[C@H](Cc1ccc2ccccc2c1)NC(=O)[C@H]1CC[C@H](CNC(=O)CN2CCN(CC(=O)O)CCN(CC(=O)O)CCN(CC(=O)O)CC2)CC1)C(=O)O)C(=O)O [PSMA-617, Glu-CO-Lys-2-naphthyl-L-Ala-cyclohexane-DOTA]
IC50 (PSMA): 2.7 ± 0.1 nM

IC50 (PSMA antigen [1]): 28.7 ± 5.2 nM
Compound: O=C(O)CCC(NC(=O)NC(CCCCNC(=O)C(Cc1c[nH]c2ccccc12)NC(=O)C1CCC(CNC(=O)CN2CCN(CC(=O)O)CCN(CC(=O)O)CCN(CC(=O)O)CC2)CC1)C(=O)O)C(=O)O [PSMA-D4, Glu-CO-Lys-L-Trp-4-Amc-DOTA]

Compound: O=C(O)CC[C@H](NC(=O)N[C@@H](CCCCNC(=O)CCCCCCC(=O)NCCCC[C@@H](NC(=O)[C@@H](Cc1ccccc1)NC(=O)[C@@H](Cc1ccc(O)c(I)c1)NC(=O)CCC(C(=O)O)N1CCN(CC(=O)O)CCN(CC(=O)O)CCN(CC(=O)O)CC1)C(=O)O)C(=O)O)C(=O)O (some centres unmarked) [PSMA-I&T, Glu-CO-Lys[(Sub)DLys-DPhe-DTyr(3I)-DOTAGA]]
IC50 (PSMA antigen [1]): 61.1 ± 7.8 nM

Compound: O=C([O-])CN1CCN(CC(=O)[O-])CCN(CC(=O)NCC2CCC(C(=O)NC(Cc3ccc4ccccc4c3)C(=O)NCCCCC(NC(=O)NC(CCC(=O)O)C(=O)O)C(=O)O)CC2)CCN(CC(=O)[O-])CC1.[47Sc+3] (centres unmarked) [[^47Sc]Sc-PSMA-617]
kidneys [2]: 5.97 ± 0.90 %ID g^−1
spleen [2]: 0.81 ± 0.34 %ID g^−1
tumor [2]: 46.7 ± 4.36 %ID g^−1

logD [3]: −3.46 ± 0.06
Kd (PSMA antigen [4]): 11.4 ± 7.1 nM
Specific Binding (PSMA antigen [4]): 96.8 ± 2.7%
Compound: O=C([O-])CN(CCN(CC(=O)[O-])Cc1cc(CCC(=O)NCCCCCC(=O)NCCCC[C@H](NC(=O)N[C@@H](CCC(=O)O)C(=O)O)C(=O)O)ccc1[O-])Cc1cc(CCC(=O)O)ccc1[O-].[68Ga+3].[OH3+] [[^68Ga]Ga-PSMA-11]
Internalization (LNCaP cells): 2.6%
Total Binding (LNCaP cells): 13.1%
tumor (LNCaP tumor-bearing mice; dose n.d., Nude mice): 7.28 ± 0.82 %ID g^−1
kidneys [2]: 58.8 ± 7.62 %ID g^−1
spleen [2]: 2.18 ± 0.38 %ID g^−1
tumor [2]: 40.0 ± 2.55 %ID g^−1

Compound: O=C([O-])CN1CCN(CC(=O)[O-])CCN(CC(=O)NCC2CCC(C(=O)NC(Cc3ccc4ccccc4c3)C(=O)NCCCCC(NC(=O)NC(CCC(=O)O)C(=O)O)C(=O)O)CC2)CCN(CC(=O)[O-])CC1.[68Ga+3] (centres unmarked) [[^68Ga]Ga-PSMA-617]
kidneys [2]: 3.48 ± 0.18 %ID g^−1
spleen [2]: 0.91 ± 0.14 %ID g^−1
tumor [2]: 55.8 ± 14.2 %ID g^−1

Compound: O=C([O-])CN1CCN(CC(=O)[O-])CCN(CC(=O)NCC2CCC(C(=O)NC(Cc3ccc4ccccc4c3)C(=O)NCCCCC(NC(=O)NC(CCC(=O)O)C(=O)O)C(=O)O)CC2)CCN(CC(=O)[O-])CC1.[90Y+3] (centres unmarked) [[^90Y]Y-PSMA-617]
logD [3]: −5.08 ± 0.13

Compound: O=C([O-])CN1CCN(CC(=O)[O-])CCN(CC(=O)NCC2CCC(C(=O)NC(Cc3ccc4ccccc4c3)C(=O)NCCCCC(NC(=O)NC(CCC(=O)O)C(=O)O)C(=O)O)CC2)CCN(CC(=O)[O-])CC1.[177Lu+3] (centres unmarked) [[^177Lu]Lu-PSMA-617]
logD [3]: −5.12 ± 0.07
Internalization (LNCaP cells): 35.4–38.9%
Total Binding (LNCaP cells): 10.2–16.8%
Internalization (LNCaP cells; listed as [^177Lu]Lu-PSMA 617): 38.9 ± 1.7%
Total Binding (LNCaP cells; listed as [^177Lu]Lu-PSMA 617): 12.8 ± 1.0%
kidneys [2]: 3.97 ± 0.56 %ID g^−1
spleen [2]: 0.21 ± 0.03 %ID g^−1
tumor [2]: 45.8 ± 4.02 %ID g^−1
Kd (PSMA): 2 ± 0.3 nM

Compound: O=C([O-])CC[C@H](NC(=O)N[C@@H](CCCCNC(=O)CCCCCCC(=O)NCCCC[C@@H](NC(=O)[C@@H](Cc1ccccc1)NC(=O)[C@@H](Cc1ccc(O)c(I)c1)NC(=O)CC[C@H](C(=O)[O-])N1CCN(CC(=O)[O-])CCN(CC(=O)[O-])CCN(CC(=O)[O-])CC1)C(=O)[O-])C(=O)[O-])C(=O)[O-].[177Lu+3].[H+].[H+].[H+].[H+].[H+] [[^177Lu]Lu-PSMA-I&T]
logD [3]: −4.47 ± 0.14
Kd (PSMA antigen [4]): 5.1 ± 2.6 nM
Specific Binding (PSMA antigen [4]): 97.1 ± 2.9%
kidneys (LNCaP tumor-bearing mice; [5]): 107.24 ± 15.61 %ID g^−1
spleen (LNCaP tumor-bearing mice; [5]): 5.85 ± 2.26 %ID g^−1
tumor (LNCaP tumor-bearing mice; [5]): 7.96 ± 1.76 %ID g^−1
kidneys (LNCaP tumor-bearing mice; [6]): 105.3 ± 15.8 %ID g^−1
spleen (LNCaP tumor-bearing mice; [6]): 7.9 ± 2.6 %ID g^−1
tumor (LNCaP tumor-bearing mice; [6]): 8.0 ± 1.7 %ID g^−1
